# According to paper PMC3354555, “Partial Purification and Characterization of Rhodanese from Rainbow Trout (Oncorhynchus mykiss) Liver” (The Scientific World Journal, 2012):
# Tested on: T1, rainbow trout liver rhodanese (thiosulphate: cyanide sulphurtransferase, EC 2.8.1.1)
# T1 construct: gene tst
# Conditions: 50 mM KCN, 25 mM citrate-phosphate-borate pH 10.5, 25°C; apparent; partially purified enzyme
smiles,measurement,value
O=S(O)(O)=S [Na2S2O3],Km,19.8 mM
